According to PubChem BioAssay (NCI):
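Grown in 96-well plates, cells were treated for 48 hours with each compound at five concentrations. Insufficient inhibition: endpoint recorded as highest concentration tested. TGI: total growth inhibition.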

Legend:
Experiment in all cases: NCI-60 cell line screen, 48 h
A549 NSCLC = test system: A549 NSCLC
BT-549 breast = test system: BT-549 breast
COLO 205 colon = test system: COLO 205 colon
K-562 leukemia = test system: K-562 leukemia
KM12 colon = test system: KM12 colon
MOLT-4 leukemia = test system: MOLT-4 leukemia
NCI-H460 lung = test system: NCI-H460 lung
RXF 393 renal = test system: RXF 393 renal
SW-620 colon = test system: SW-620 colon
U251 CNS = test system: U251 CNS

SMILES | TGI (A549 NSCLC) | TGI (BT-549 breast) | TGI (COLO 205 colon) | TGI (K-562 leukemia) | TGI (KM12 colon) | TGI (MOLT-4 leukemia) | TGI (NCI-H460 lung) | TGI (RXF 393 renal) | TGI (SW-620 colon) | TGI (U251 CNS)
CN(C)C(=O)O/N=C1/C(c2c(O)[nH]c3ccccc23)=Nc2ccccc21 | > 100 µM | 43.7 µM | > 100 µM | > 100 µM | > 100 µM | 41.5 µM | > 100 µM | 14.1 µM | > 100 µM | 33.9 µM
CCOC(=O)C1(C/C=C/CBr)Cc2ccccc2C1=O (stereo not given) | > 35.7 µM | 8.86 µM | 11.7 µM | 4.84 µM | 10.8 µM | 8.31 µM | 4.21 µM | 6.32 µM | 7.06 µM | 14.8 µM
COc1ccc(C2CC(c3c(O)ccc4ccccc34)=NN2C(C)=O)cc1OC (stereo not given) | > 100 µM | 43.9 µM | 42.8 µM | 43.8 µM | > 100 µM | 53.6 µM | 93.5 µM | 84.2 µM | > 100 µM | > 100 µM
COC(=O)c1cc(=O)nc2sc3cccc(C)c3n12 | > 100 µM | > 100 µM | 29.8 µM | > 100 µM | > 100 µM | > 100 µM | > 100 µM | > 100 µM | > 100 µM | > 100 µM
COc1cc(C2c3cc4c(cc3OC(N3CCOCC3)C2C)OCO4)ccc1O (stereo not given) | > 100 µM | > 100 µM | > 100 µM | 33 µM | > 100 µM | 60.7 µM | 55.5 µM | 27.6 µM | > 100 µM | > 100 µM
CC(C)(C)OC(=O)NCCCCC1NC(=O)[C@@H]2Cc3c([nH]c4ccccc34)C(C3CCCCC3)N2C1=O (stereo not given in full) | > 100 µM | > 100 µM | 55.1 µM | > 100 µM | > 100 µM | 44.9 µM | > 100 µM | 25.6 µM | > 100 µM | > 100 µM
COc1cc(Br)cc2cc(-c3cn4ccsc4n3)c(=O)oc12 | > 100 µM | 50.7 µM | > 100 µM | > 100 µM | 56.5 µM | > 100 µM | > 100 µM | 75.7 µM | > 100 µM | > 100 µM
c1csc(-c2ccc(-c3cccc4nsnc34)s2)c1 | > 100 µM | > 100 µM | > 100 µM | > 100 µM | > 100 µM | 39.2 µM | > 100 µM | > 100 µM | > 100 µM | > 100 µM
CC(=O)NC(Cc1ccc(O)cc1)C(=O)O (stereo not given) | > 100 µM | > 100 µM | > 100 µM | > 100 µM | > 100 µM | > 100 µM | > 100 µM | > 100 µM | > 100 µM | > 100 µM
CC[C@@H]1CC[C@@H]2[C@H](CC[C@]3(C)[C@@H](OC(C)=O)CC[C@@H]23)[C@H]1COC(C)=O | 59.2 µM | 87.9 µM | 36.8 µM | 36.2 µM | 60 µM | 37 µM | 45.9 µM | 45.9 µM | > 100 µM | 45 µM
NC(=O)NCCCC(NC(=O)OCCCCn1ccc(=O)[nH]c1=O)C(=O)O (stereo not given) | > 100 µM | > 100 µM | > 100 µM | > 100 µM | > 100 µM | > 100 µM | > 100 µM | > 100 µM | > 100 µM | > 100 µM
COC(=O)C1SC(SC)=NC12c1ccccc1Nc1ccccc12 (stereo not given) | > 100 µM | 58.6 µM | 39.3 µM | > 100 µM | > 100 µM | 71.1 µM | 56.1 µM | > 100 µM | > 100 µM | 66.6 µM
NC(N)=N/N=C/c1c(-c2ccc(N)cc2)nc2sccn12 | 47.6 µM | > 100 µM | 57.8 µM | 66.1 µM | > 100 µM | 73.9 µM | 76.8 µM | 39.9 µM | 68.2 µM | 64.1 µM
Nc1nc(Cl)cc(NCC2(CO)CC(=O)C2)n1 | > 100 µM | > 100 µM | > 100 µM | > 100 µM | > 100 µM | > 100 µM | > 100 µM | > 100 µM | > 100 µM | > 100 µM
CC(C)(C)N1CSC(=S)N(Cc2ccco2)C1 | 24.4 µM | 9.62 µM | 14.7 µM | 13.3 µM | 14.3 µM | 5.72 µM | 22.5 µM | 19.4 µM | 11.9 µM | 14.4 µM
Cc1nc2n(c1/C=C1/C(=O)Nc3cccc(Cl)c31)CCS2 | > 100 µM | 98.7 µM | > 100 µM | > 100 µM | > 100 µM | > 100 µM | > 100 µM | 50.6 µM | > 100 µM | 34.7 µM
O=C(N/N=C(/COc1ccc(Cl)cc1)N=Cc1ccncc1)c1ccncc1 | > 100 µM | > 100 µM | > 100 µM | > 100 µM | > 100 µM | > 100 µM | > 100 µM | > 100 µM | > 100 µM | > 100 µM
Cc1ccccc1C(=O)N1CCc2c([nH]c3ccccc23)C1 | > 100 µM | 42.8 µM | 31.9 µM | 62.5 µM | 87 µM | 80 µM | 53.4 µM | 43.1 µM | > 100 µM | 41.3 µM
C[C@@H](NC(=O)[C@@H]1C[C@]1(C)COC(=O)c1cc([N+](=O)[O-])cc([N+](=O)[O-])c1)c1cccc2ccccc12 | > 100 µM | > 100 µM | > 100 µM | > 100 µM | > 100 µM | > 100 µM | > 100 µM | > 100 µM | > 100 µM | > 100 µM
[N-]=[N+]=NC[C@H]1OCO[C@H](CN=[N+]=[N-])[C@@H](OCCOCCCl)[C@@H]1OCCOCCCl | > 100 µM | > 100 µM | > 100 µM | > 100 µM | > 100 µM | > 100 µM | > 100 µM | > 100 µM | > 100 µM | > 100 µM
COc1cc2nc3n(c(=O)c2cc1OC)-c1ccc([N+](=O)[O-])cc1C3=O | > 100 µM | > 100 µM | > 100 µM | > 100 µM | > 100 µM | > 100 µM | > 100 µM | 79.7 µM | 62.2 µM | > 100 µM
COc1ccc2cc(NC(=O)N/N=C\c3ccc([N+](=O)[O-])cc3)ccc2c1 | > 100 µM | 76.5 µM | > 100 µM | > 100 µM | > 100 µM | > 100 µM | > 100 µM | 45.1 µM | > 100 µM | > 100 µM
Cc1ccc(N=NC(=Nc2ccccc2)c2ccc(N(CCC#N)CCC#N)cc2)cc1 | 80.7 µM | 47.3 µM | > 100 µM | > 100 µM | > 100 µM | > 100 µM | 45.5 µM | 80.1 µM | > 100 µM | 71.2 µM
CCCCCCc1cc2cc(-c3csc(CC#N)n3)c(=O)oc2cc1O | > 100 µM | > 60.2 µM | > 100 µM | > 100 µM | > 100 µM | > 100 µM | > 100 µM | > 89.2 µM | > 100 µM | > 100 µM
